# Measurements taken from patent US20090017070A1, “In vitro model for hepatitis c virion production” (priority 2004, published 2009).
# Legend:
# HCV = settings: HCV-infected individuals treated with IFN; cited from earlier work
# [1] = system: HCV (JFH-1, genotype 2a) in Huh7 cells; assay: Interferon treatment of HCV.JFH1-Rbz transfected Huh7 cells, viral production by HCV core Ag level in the medium; type: cell-based, Hepatitis C virus; settings: treated with interferon one day after transfection, HCV core Ag level in medium (FIG. 13B)
# Text: FIG. 13. Production of infectious HCV in culture. (A). Full-length genomic cDNAs of HCV genotypes 1a (H77), 2b (J6), and 2a (JFH-1) were cloned into the HCV-ribozyme construct as described in FIG. 7. The constructs and the pTHr plasmid containing the CG1b HCV genome as described above were transfected into Huh7 cells and tested for virus production in the medium by using HCV core Ag ELISA. (B) HCV.JFH1-Rbz construct was transfected to Huh7 cells and treated with interferon one day after transfection. Viral production was monitored by measurement of HCV core Ag level in the medium. (C) Long-term culture of HCV.JFH1.Rbz transfected Huh7 cells were maintained with serial passage for the indicated duration. Culture medium was harvested at indicated times for HCV core Ag level and HCV RNA titer. […] Multiple foci of cells with positive intracellular staining were detected.
# HCV RNA, Protein Quantitation, and RACE. HCV RNA level was quantitated by using the TaqMan real-time PCR method as previously described (Thomson, M. et al. 2001 Gastroenterology 121:1226-33). […] The core protein was quantitated by using the HCV core ELISA kits, which were provided by S. Yagi (Advanced Life Technology, Saitama, Japan) and used as previously described (Tanaka, E. et al. 2000 Hepatology 32: 388-93). […]
substance,measurement,setting,value
interferon-alfa,Proportion of those treated showing a sustained response as evidenced by lack of circulating HCV RNA,HCV,10-20%
same,Sensitivity of viral replication to interferon-alfa treatment,[1],sensitive
